Measurements from the supplement of paper PMC10307832.

Columns and labels:
Experiment in all cases: relative viability (nuclei count vs DMSO), 5 days (fraction); higher = more cells survive
Selumetinib + Vorinostat = compound: Cn1cnc2c(F)c(Nc3ccc(Br)cc3Cl)c(C(=O)NOCCO)cc21 [Selumetinib] + O=C(CCCCCCC(=O)Nc1ccccc1)NO [Vorinostat] (partner 1 µM)
Method in brief: (§1)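 Relative viability equals treated-well nuclei counts divided by vehicle-well nuclei counts. Counts came from 4× images of lung cancer cell lines grown in 1536-well plates for 5 days after pin-tool dosing on the day after seeding. Dosing used one drug alone or a fixed anchor-drug dose plus five library-drug doses (not always all listed) in √10 steps, and values are medians of duplicate plates.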

Selumetinib + Decitabine = compound: Cn1cnc2c(F)c(Nc3ccc(Br)cc3Cl)c(C(=O)NOCCO)cc21 [Selumetinib] + Nc1ncn([C@H]2C[C@H](O)[C@@H](CO)O2)c(=O)n1 [Decitabine] (partner 2 µM)
Method in brief: as §1

Venetoclax + Vorinostat = compound: CC1(C)CCC(CN2CCN(c3ccc(C(=O)NS(=O)(=O)c4ccc(NCC5CCOCC5)c([N+](=O)[O-])c4)c(Oc4cnc5[nH]ccc5c4)c3)CC2)=C(c2ccc(Cl)cc2)C1 [Venetoclax] + O=C(CCCCCCC(=O)Nc1ccccc1)NO [Vorinostat] (partner 1 µM)
Method in brief: as §1

Selumetinib + Dasatinib = compound: Cn1cnc2c(F)c(Nc3ccc(Br)cc3Cl)c(C(=O)NOCCO)cc21 [Selumetinib] + Cc1nc(Nc2ncc(C(=O)Nc3c(C)cccc3Cl)s2)cc(N2CCN(CCO)CC2)n1 [Dasatinib] (partner 0.075 µM)
Method in brief: as §1

Row | Cell Line | relative viability (Selumetinib + Vorinostat; first compound 0.02 µM) | relative viability (Selumetinib + Vorinostat; first compound 0.06325 µM) | relative viability (Selumetinib + Vorinostat; first compound 0.2 µM) | relative viability (Selumetinib + Vorinostat; first compound 0.6325 µM) | relative viability (Selumetinib + Decitabine; first compound 0.02 µM) | relative viability (Selumetinib + Decitabine; first compound 0.06325 µM) | relative viability (Selumetinib + Decitabine; first compound 0.2 µM) | relative viability (Selumetinib + Decitabine; first compound 0.6325 µM) | relative viability (Venetoclax + Vorinostat; first compound 0.01 µM) | relative viability (Venetoclax + Vorinostat; first compound 0.03162 µM) | relative viability (Venetoclax + Vorinostat; first compound 0.1 µM) | relative viability (Venetoclax + Vorinostat; first compound 0.3162 µM) | relative viability (Venetoclax + Vorinostat; first compound 1 µM) | relative viability (Selumetinib + Dasatinib; first compound 0.02 µM) | relative viability (Selumetinib + Dasatinib; first compound 0.06325 µM) | relative viability (Selumetinib + Dasatinib; first compound 0.2 µM) | relative viability (Selumetinib + Dasatinib; first compound 0.6325 µM)
1 | NCI-H2009 | 0.675 | 0.717 | 0.65 | 0.377 | 0.354 | 0.292 | 0.35 | 0.279 | 0.746 | 0.729 | 0.758 | 0.714 | 0.681 | 0.233 | 0.183 | 0.163 | 0.151
2 | NCI-H1944 | 0.562 | 0.448 | 0.441 | 0.491 | 0.433 | 0.456 | 0.397 | 0.426 | 0.606 | 0.586 | 0.442 | 0.608 | 0.498 | 0.186 | 0.186 | 0.161 | 0.167
3 | EPLC-272H | 0.312 | 0.343 | 0.3 | 0.256 | 0.364 | 0.339 | 0.346 | 0.294 | 0.495 | 0.422 | 0.579 | 0.469 | 0.494 | 0.294 | 0.297 | 0.355 | 0.174
4 | NCI-H3122 | 0.988 | 0.651 | 0.84 | 0.651 | 0.401 | 0.394 | 0.401 | 0.452 | 1.11 | 0.881 | 0.802 | 0.916 | 0.885 | 0.712 | 0.702 | 0.684 | 0.534
5 | NCI-H2085 | 0.76 | 0.757 | 0.739 | 0.718 | 0.524 | 0.593 | 0.537 | 0.544 | 0.713 | 0.807 | 0.795 | 0.817 | 0.765 | 0.25 | 0.23 | 0.204 | 0.215
6 | HCC-366 | 0.335 | 0.41 | 0.344 | 0.445 | 0.353 | 0.36 | 0.315 | 0.309 | 0.311 | 0.395 | 0.273 | 0.346 | 0.312 | 0.501 | 0.566 | 0.456 | 0.367
7 | HCC-78 | 0.433 | 0.358 | 0.413 | 0.482 | 0.819 | 0.759 | 0.779 | 0.685 | 0.448 | 0.446 | 0.373 | 0.438 | 0.424 | 0.395 | 0.344 | 0.347 | 0.364
8 | COR-L23 | 0.554 | 0.537 | 0.485 | 0.456 | 0.438 | 0.418 | 0.451 | 0.444 | 0.428 | 0.439 | 0.39 | 0.433 | 0.392 | 0.462 | 0.488 | 0.488 | 0.47
9 | HCC-827 | 1 | 0.906 | 0.999 | 0.957 | 0.362 | 0.317 | 0.351 | 0.448 | 0.848 | 0.958 | 0.83 | 0.892 | 0.755 | 0.24 | 0.331 | 0.26 | 0.294
10 | NCI-H1437 | 0.749 | 0.7 | 0.576 | 0.429 | 0.614 | 0.537 | 0.464 | 0.544 | 0.8 | 0.888 | 0.808 | 0.709 | 0.788 | 0.334 | 0.231 | 0.197 | 0.215
11 | PC-14 | 0.835 | 0.667 | 0.688 | 0.504 | 0.241 | 0.2 | 0.227 | 0.179 | 0.642 | 0.788 | 0.822 | 0.692 | 0.641 | 0.265 | 0.26 | 0.256 | 0.217
12 | NCI-H2228 | 0.744 | 0.627 | 0.63 | 0.619 | – | – | – | – | 0.915 | 0.623 | 0.799 | 0.461 | 0.436 | 0.428 | 0.454 | 0.405 | 0.39
13 | BEN | 0.527 | 0.558 | 0.59 | 0.632 | 0.704 | 0.733 | 0.714 | 0.731 | 0.599 | 0.603 | 0.494 | 0.556 | 0.523 | 0.295 | 0.341 | 0.368 | 0.371
14 | LOU-NH91 | 0.889 | 0.88 | 0.843 | 0.874 | 0.782 | 0.777 | 0.723 | 0.751 | 0.868 | 1.05 | 0.916 | 1.03 | 0.874 | 0.547 | 0.504 | 0.495 | 0.534
15 | EKVX | 0.557 | 0.531 | 0.446 | 0.384 | 0.339 | 0.29 | 0.37 | 0.339 | 0.618 | 0.838 | 0.602 | 0.771 | 0.592 | 0.469 | 0.567 | 0.371 | 0.276
16 | NCI-H1355 | 0.561 | 0.529 | 0.488 | 0.382 | 0.385 | 0.357 | 0.377 | 0.329 | 0.626 | 0.618 | 0.625 | 0.692 | 0.577 | 0.717 | 0.631 | 0.543 | 0.413
17 | NCI-H1563 | – | – | – | – | – | – | – | – | – | – | – | – | – | 0.514 | 0.451 | 0.498 | 0.528
18 | NCI-H1792 | – | – | – | – | 0.635 | 0.486 | 0.52 | 0.425 | – | – | – | – | – | 0.787 | 0.802 | 0.704 | 0.597
19 | IA-LM | 0.728 | 0.648 | 0.366 | 0.198 | – | – | – | – | 0.673 | 1.01 | 0.8 | 0.958 | 1 | – | – | – | –
20 | NCI-H1648 | – | 0.596 | 0.423 | 0.367 | – | 0.447 | 0.477 | 0.673 | – | 0.397 | 0.494 | 0.451 | 0.477 | – | – | – | –
21 | A549 | – | – | – | – | 0.305 | 0.227 | 0.198 | 0.267 | – | – | – | – | – | – | – | – | –
22 | NCI-H1623 | – | – | – | – | – | – | – | – | – | – | – | – | – | 0.465 | 0.454 | 0.461 | 0.505
23 | CAL-12T | 0.81 | 0.724 | 0.569 | 0.507 | – | – | – | – | 0.684 | 0.782 | 0.683 | 0.865 | 0.56 | 0.363 | 0.258 | 0.285 | 0.258
